Results from paper PMC9317316, “Synthesis and Evaluation of Some New 4H-Pyran Derivatives as Antioxidant, Antibacterial and Anti-HCT-116 Cells of CRC, with Molecular Docking, Antiproliferative, Apoptotic and ADME Investigations” (Pharmaceuticals, 2022).
Values joined by “and” are separate entries in the source; they are usually repeats but may differ in a detail not shown here. Identical values can stand only once. Like-named read-outs stand apart in the source and are kept apart here.

Experiments:
[1] = DPPH radical scavenging assay; conditions: for IC50: 0.03 to 1 mg/mL, 1 h, mean ± SD, triplicate, read-out: IC50 (mM) for DPPH Scavenging Potency
Protocol: The IC50 values for DPPH were calculated from the plot of the scavenging effect against the compound concentration.
The compounds’ capacities to scavenge the stable radical 1,1 diphenyl-2-picrylhydrazyl (DPPH) formed in solution by donation of a hydrogen atom or an electron was investigated according to the method described by Bersuder and coworkers. Due to the fact that the initial blue/purple solution of diphenyl picrylhydrazine changes to yellow in the presence of compounds with a capacity to scavenge DPPH free radicals, this reaction is used as a measure of a compound’s ability to scavenge any free radical. Briefly, a 0.5 mL volume of DPPH ethanolic solution was mixed with an equal volume of each sample concentration (0.03 to 1 mg/mL), shaken strongly and incubated at room temperature for 1 h in darkness. The absorbance of the residual DPPH radicals was measured at 519 nm and compared to that of the control (without the tested compound). DPPH radical scavenging was calculated using the following formula: Scavenging effect (%) = (1 − Acompound/AControl) × 100, where Acompound and Acontrol are the absorbances of the tested compound and of the control, respectively. A plot of the scavenging effect (%) versus the sample concentration was also performed to determine the compound concentration providing 50% inhibition (IC50).

[2] = Reducing power assay (FRAC, Fe3+ to Fe2+); conditions: 0-1 mg/mL, absorbance 700 nm
Protocol: Secondly, FRAC was determined over the concentration range of 0.0−1 mg/mL via monitoring Fe^3+−Fe^2+ transformation in the presence of the studied compounds and the reference antioxidant BHT to estimate the values of efficient concentration (EC50), expressed in mM.
The reducing power of the studied compounds was assessed according to Oyaizu’s method. Briefly, different concentrations (ranging from 0 to 1 mg/mL) of each tested compound were first mixed with 1 mL of 0.2 M sodium phosphate buffer (pH 6.6) and 1 mL of 1% potassium ferricyanide (K3Fe(CN)6) and incubated at 50 °C for 20 min. After the addition of 1.25 mL of 20% trichloroacetic acid (TCA), the mixture was centrifuged for 10 min at 3000 rpm and the upper layer solution was then mixed with 0.5 mL of 0.1% fresh ferric chloride and an equal volume of deionized water. Finally, the absorption of the resulting mixture was measured at 700 nm using a UV spectrophotometer against distilled water as the blank, while butylated hydroxytoluene (BHT) was used as a positive control. The sample ferric reducing power capability was indicated by increased absorbance.

[3] = test system: B. cereus (ATCC 14579); assay: Antibacterial agar diffusion method (inhibition zone); format: cell-based
Protocol: (§1) The results for the in vitro antibacterial properties of the synthesized compounds against five Gram-positive and four Gram-negative human-pathogenic strains, which were assessed by both the agar diffusion method (based on inhibition zone (IZ)) and the broth dilution bioassay (for the determination of the half-maximal inhibitory concentration (IC50) values), using ampicillin as the reference antibiotic drug, are shown in Table 2 and Table 3.
(§2) The antibacterial activity of all synthesized compounds was evaluated against the Gram-negative strains E. coli (ATCC 25966), K. pneumonia (ATCC 700603), P. aeruginosa (ATCC 27853) and S. enteric (ATCC 43972) and against the Gram-positive strains B. cereus (ATCC 14579), B. subtilis (ATCC 6633), E. faecalis (ATCC 29122), S. aureus (ATCC 25923) and S. epidermidis (ATCC 14990), using the agar diffusion method through measuring the appearance of the inhibition zone on the surface of the top agar, as reported by Berghe and Vlietinck. Ampicillin (10 µg/well) was used as the positive reference standard. Bacterial viability was also investigated by determining the colony-forming ability (CFU) of bacteria incubated at different time intervals without or with appropriate amounts of the compound, which were mixed with 2 ×10^7 CFU/mL in sterile BHI and incubated under shaking for 60 min at 37 °C. Samples were serially diluted into sterile BHI, streaked onto media agar plates and incubated for 24 h at 37 °C. The antibacterial potency of the tested compounds was expressed as the residual number of CFUs with reference to the initial inoculums. The results presented as the half-maximal (50 %) inhibitory concentration (IC50) values are the means of three different measurements.

[4] = test system: B. subtilis (ATCC 6633); assay: as above; format: cell-based
Protocol: as §1, §2

[5] = test system: E. coli (ATCC 25966); assay: as above; format: cell-based; conditions: E. coil (ATCC 25966)
Protocol: as §1, §2

[6] = test system: E. faecalis (ATCC 29122); assay: as above; format: cell-based
Protocol: as §1, §2

[7] = test system: K. pneumonia (ATCC 700603); assay: as above; format: cell-based
Protocol: as §1, §2

[8] = test system: P. aeruginosa (ATCC 27853); assay: as above; format: cell-based
Protocol: as §1, §2

[9] = test system: S. aureus (ATCC 25923); assay: as above; format: cell-based
Protocol: as §1, §2

[10] = test system: S. epidermidis (ATCC 14990); assay: as above; format: cell-based
Protocol: as §1, §2

[11] = test system: B. cereus (ATCC 14579); assay: Antibacterial viability (CFU) assay, IC50; format: cell-based; conditions: Bacillus cereus, ATCC14579
Protocol: as §1, §2

[12] = test system: B. subtilis (ATCC 6633); assay: Antibacterial viability (CFU) assay, IC50; format: cell-based
Protocol: as §1, §2

[13] = test system: E. coli (ATCC 25966); assay: Antibacterial viability (CFU) assay, IC50; format: cell-based; conditions: Escherichia coli, ATCC25966; E. coil (ATCC 25966)
Protocol: as §1, §2

[14] = test system: E. faecalis (ATCC 29122); assay: Antibacterial viability (CFU) assay, IC50; format: cell-based; conditions: Enterococcus faecalis, ATCC29122
Protocol: as §1, §2

[15] = test system: K. pneumonia (ATCC 700603); assay: Antibacterial viability (CFU) assay, IC50; format: cell-based; conditions: Klebsiella pneumoniae, ATCC700603
Protocol: as §1, §2

[16] = test system: P. aeruginosa (ATCC 27853); assay: Antibacterial viability (CFU) assay, IC50; format: cell-based; conditions: Pseudomonas aeruginosa, ATCC27853
Protocol: as §1, §2

[17] = test system: S. aureus (ATCC 25923); assay: Antibacterial viability (CFU) assay, IC50; format: cell-based; conditions: Staphylococcus aureus, ATCC25923
Protocol: as §1, §2

[18] = test system: S. enteric (ATCC 43972); assay: Antibacterial viability (CFU) assay, IC50; format: cell-based
Protocol: as §1, §2

[19] = test system: S. epidermidis (ATCC 14990); assay: Antibacterial viability (CFU) assay, IC50; format: cell-based; conditions: Staphylococcus epidermidis, ATCC14990
Protocol: as §1, §2

[20] = test system: HCT-116 cells; assay: Cell viability (cytotoxicity, LDH release) assay; format: cell-based; conditions: Homo sapiens, 100 µg/mL, 24 h, read-out: percent of viable cells
Protocol: The synthesized compounds were also examined at four concentrations (10, 25, 50 and 100 µg/mL) for their cytotoxic effects on human colorectal cancer HCT-116 cells after their incubation together for 24 h.
Cytotoxic potency was examined for a human colon cancer cell line HCT-116 (American Type Culture Collection; Manassas, VA, USA) using various amounts of each compound (10, 25, 50 and 100 µg). Samples were diluted in Dulbecco’s Modified Eagle’s Medium, consisting of 10% Fetal Bovine Serum, and added to cells grown and cultured for 24 h in a 5% CO2-humidified incubator at 37 °C. Then, the activity of lactate dehydrogenase released from damaged cells was determined in the collected supernatant aliquots using an ELISA endpoint assay (Benchmark Plus, Bio-Rad, Hercules, CA, USA). As positive and negative controls, respectively, 0.1% Triton X-100 in the assay medium and the assay medium only were used. Cell viability, shown as mean values ± SDs (n = 3), was expressed as a relative percentage of the OD values determined at 600 nm in compound-treated cells and the control.

[21] = test system: S. enteric (ATCC 43972); assay: Antibacterial agar diffusion method (inhibition zone); format: cell-based
Protocol: as §1, §2

[22] = Bacillus subtilis, ATCC6633, B. subtilis (ATCC 6633)

| Structure (SMILES) | IC50 [1] | DPPH Radical Scavenging Effenciency (%) at 1 mg/mL [1] | EC50 [2] | IZ (mm) [3] | IZ (mm) [4] | IZ (mm) [5] | IZ (mm) [6] | IZ (mm) [7] | IZ (mm) [8] | IZ (mm) [9] | IZ (mm) [10] | IC50 [11] | IC50 [12, 22] | IC50 [13] | IC50 [14] | IC50 [15] | IC50 [16] | IC50 [17] | IC50 ([18]; read-out: IC50) | IC50 [19] | other results |
| --- | --- | --- | --- | --- | --- | --- | --- | --- | --- | --- | --- | --- | --- | --- | --- | --- | --- | --- | --- | --- | --- |
| CCOC(=O)C1=C(C)OC(N)=C(C#N)C1c1cccc(O)c1Cl (stereo not shown) [4g, 6-Amino-4-(2-chloro-3-hydroxy-phenyl)-5-cyano-2-methyl-4H-pyran-3-carboxylic acid ethyl ester] | 0.329 ± 0.042 mM | 90.50% and 90.50 ± 2.12% | 72 ± 4 µM | 29.00 mm and 29.00 ± 1.41 mm | 28.00 mm and 28.00 ± 1.41 mm | 11.0 ± 1.41 mm | 24.50 mm and 24.50 ± 0.71 mm | 11.5 ± 0.7 mm | 13.5 ± 0.7 mm | 27.50 mm and 27.50 ± 0.71 mm | 29.75 mm and 29.75 ± 0.35 mm | 29.4 ± 1.49 µM | 25.7 ± 1.7 µM | 61.8 ± 5.38 µM | 31.8 ± 1.49 µM | 61.8 ± 2.99 µM | 54.1 ± 4.48 µM | 27.8 ± 1.25 µM | 53 ± 3.29 µM | 30.3 ± 1.49 µM | IC50 [18]: 54.1 µM; viability at 100 µg/mL [20]: 86%; melting point: 212 to 213 °C |
| COc1ccc(C2C(C#N)=C(N)OC(C)=C2C(=O)OCc2ccccc2)cc1 (stereo not shown) [4j, 6-Amino-5-cyano-4-(4-methoxy-phenyl)-2-methyl-4H-pyran-3-carboxylic acid benzyl ester] | 0.194 mM | 88.00% and 88.00 ± 1.41% | 74 ± 4 µM | 24.50 mm and 24.50 ± 0.71 mm | 21.50 mm and 21.50 ± 0.71 mm | 10.5 ± 0.71 mm | 23.20 mm and 23.20 ± 0.57 mm | 12.0 ± 1.4 mm | 14.5 ± 0.7 mm | 25.25 mm and 25.25 ± 1.06 mm | 26.65 mm and 26.65 ± 0.92 mm | 27.6 ± 1.51 µM | 23.6 to 36.8 µM | 57.1 ± 0.8 µM | 28.2 ± 1.51 µM | 48.4 ± 3.99 µM | 49.7 ± 4.78 µM | 33.3 ± 1.7 µM | 51.8 ± 2.92 µM | 33.3 ± 1.7 µM | IC50 ([12]; B. subtilis (ATCC 6633)): 23.6 ± 0.37 µM; IC50 [18]: 49.7 µM; viability at 100 µg/mL [20]: 94%; melting point: 170 to 172 °C |
| CC1(C)S[C@@H]2[C@H](NC(=O)[C@H](N)c3ccccc3)C(=O)N2[C@H]1C(=O)O [Ampicillin, reference compound] |  |  |  | 23.50 ± 0.71 mm | 25.50 ± 0.71 mm | 23.5 ± 0.71 mm | 24.50 ± 0.71 mm | 21.0 ± 1.4 mm | 21.5 ± 0.7 mm | 21.50 ± 0.71 mm | 22.50 ± 0.71 mm | 25.8 ± 0.57 µM | 37.2 ± 1.43 µM | 58 ± 4.87 µM | 36.5 ± 3.03 µM | 32.9 ± 2.29 µM | 41.5 ± 1.72 µM | 38.6 ± 2 µM | 14.9 ± 0.34 µM | 50.1 ± 3.43 µM | IZ (mm) ([3]; listed as ampicillin): 23.50 mm; IZ (mm) ([4]; listed as ampicillin): 25.50 mm; IZ (mm) ([6]; listed as ampicillin): 24.50 mm; IZ (mm) ([9]; listed as ampicillin): 21.50 mm; IZ (mm) [21]: 19.5 ± 0.7 mm; IZ (mm) ([10]; listed as ampicillin): 22.50 mm |
